Data set [1] deals with MMA fibroblasts. As to the kind of experiment: MMA cell line assay: rescue of BSO-stressed fibroblasts (cell viability, Calcein AM). The format is cell-based. The conditions noted are these: Homo sapiens, Fibroblast; fibroblasts from MMA patient stressed with 25 μM BSO; Calcein AM readout; read-out: ED50 (protection of cell viability). The procedure:
Alpha-Tocotrienol quinone, its redox-silent version (the bis-Boc protected corresponding hydroquinone), and solvent controls were tested for their ability to rescue cells from MMA fibroblasts of the patient diagnosed with MMA, when the cells were stressed by addition of L-buthionine-(S,R)-sulfoximine (BSO), as described in Jauslin et al., Hum. Mol. Genet. 11(24):3055 (2002), Jauslin et al., FASEB J. 17:1972-4 (2003), and International Patent Application WO 2004/003565. EC50 concentrations of test compound and its redox-silent version were determined and compared. The following compound, 2-((6E,10E)-3-hydroxy-3,7,11,15-tetramethylhexadeca-6,10,14-trienyl)-3,5,6-trimethyl-bis(t-butyloxycarbonyl)benzene-1,4-diol, the bis-Boc protected hydroquinone form of alpha-tocotrienol quinone, was used as the “redox-silent” alpha tocotrienol quinone, or αTTQ-RS.
DMEM (Dulbecco's Modified Eagle Medium)—No Glucose, No pyruvate—GIBCO®—Catalog number 11966-025 from Invitrogen. Fetal Calf Serum was obtained from PAA Laboratories. Basic fibroblast growth factor and epidermal growth factor were purchased from PeproTech. Penicillin-streptomycin-glutamine mix, L-buthionine (S,R)-sulfoximine, and insulin from bovine pancreas were purchased from Sigma. Calcein AM was purchased from Molecular Probes. […]

Data set [2] is described as follows: Blood-brain barrier crossing in mice. The format is in vivo.
Data set [3] in a line: Pharmacokinetics of alpha-tocotrienol quinone in rats. The format is in vivo, rat. The procedure: (§1) The particular dosage appropriate for a specific patient is determined by dose titration. […] This lack of dose-proportionality may be due to decreased absorption since there is no change in t1/2 over dose range. Alpha-tocotrienol quinone tested in rats was safe when given acutely up to 2000 mg/kg.

In data set [4] the test system is rats. The conditions noted are these: rat, in vivo. The procedure:
as §1
The starting dose can be estimated based on the United States Food and Drug Administration guidelines titled “Estimating the Maximum Safe Starting Dose in Initial Clinical Trials for Therapeutics in Adult Healthy Volunteers” (July 2005) as well as the International Conference on Harmonisation of Technical Requirements for Registration of Pharmaceuticals for Human Use (ICH) guidelines titled “Guidance on Non-clinical Safety Studies for the Conduct of Human Clinical Trials and Marketing Authorization for Pharmaceuticals” (July 2008). Per ICH guidelines, predicted exposures from the starting dose should not exceed 1/50th the NOAEL (No-Adverse-Observed-Effect-Level) in the more sensitive species on a mg/m^2 basis. Following a single oral dose of alpha-tocotrienol quinone, the NOAEL was established to be 500 mg/kg for the female rat, i.e. 3,000 mg/m2. This dosage would be equivalent to 81 mg/kg in an adult human. 1/50th of 81 mg/kg is 1.6 mg/kg, i.e. 110 mg for a 70 kg adult, or 16 mg for a 10 kg child. This dose can be administered once, twice, or three times daily.

A short description of data set [5]: Pharmacokinetics of alpha-tocotrienol quinone in fasted dogs. The conditions noted are these: dog, in vivo, po, 10 mg/kg. The procedure: as §1

Regarding `CC(C)=CCC/C(C)=C/CC/C(C)=C/CCC(C)(O)CCC1=C(C)C(=O)C(C)=C(C)C1=O` (stereo not drawn) [alpha-tocotrienol quinone, Alpha-tocotrienol quinone], the EC50 in data set [1] was 23 nM. The “crosses the blood-brain barrier” value in data set [2] is recorded as “crosses the blood-brain barrier”. Further, in data set [3] (increase in doses of 2.4: 6: 10: 20 gives increase in AUCs of 1.5: 2.8: 4.0: 6.7), the “dose-proportionality of AUC” value is on record as “less than dose-proportionality”. Moreover, the bioavailability (usually the share of a dose that reaches the circulation, judged against a reference dose that is usually intravenous) in data set [3] (rat, in vivo, 10 mg/kg) was around 90%; in data set [5], around 16%. Besides, the “safe when given acutely up to” value in data set [4] is given as “up to 2000 mg/kg”. Also, the “NOAEL on mg/m2 basis” value in data set [4] (po) was 3,000 mg/m2.

Values taken from US20150057363A1, “TREATMENT OF METHYLMALONIC ACIDURIA, ISOVALERIC ACIDURIA, AND OTHER ORGANIC ACIDURIAS WITH TOCOTRIENOL QUINONES” (priority 2011, published 2015).
